# US20060148712A1, “Monocyte chemoattractant activity of galectin-3” (priority 2000, published 2006)
# Columns and labels:
# [1] = molecular target: T1, CCR-1 (Homo sapiens, UniProt P32246); assay: Immunoprecipitation and immunoblotting with specific antibodies; type: binding
# T1 construct: Chemokine receptors expressed on monocytes include CCR-1, CCR-2, CCR-5, and CXCR-4; endogenous in cells
# T1 sequence (P32246 1-355): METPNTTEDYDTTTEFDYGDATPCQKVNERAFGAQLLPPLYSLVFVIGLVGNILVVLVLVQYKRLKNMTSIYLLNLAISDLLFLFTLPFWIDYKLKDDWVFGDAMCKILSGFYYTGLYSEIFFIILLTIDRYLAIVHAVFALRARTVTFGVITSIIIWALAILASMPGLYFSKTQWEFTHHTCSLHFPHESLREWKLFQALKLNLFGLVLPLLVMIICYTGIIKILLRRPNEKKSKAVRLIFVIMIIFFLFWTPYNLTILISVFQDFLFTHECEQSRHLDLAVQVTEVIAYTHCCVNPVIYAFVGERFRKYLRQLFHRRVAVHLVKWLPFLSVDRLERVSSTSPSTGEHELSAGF
# [2] = system: cultured human peripheral blood macrophages; assay: Migration of cultured human peripheral blood macrophages in vitro; type: cell-based; conditions: 1 μM galectin-3; p<0.05, n=3
# Description: Human macrophages were obtained by culturing peripheral blood monocytes in vitro for 7 days as previously described (Fantuzzi, et al., Blood 94:875-83 (1999)). Human alveolar macrophages were obtained from bronchoalveolar lavage (BAL) fluid according to a previously described protocol (Sugimoto et al, Am. Rev. Respir. Dis. 139:1329-35 (1989)). The purity of the macrophages was over 90% and the viability was over 99%.
# Monocyte migration was examined by using 96-well micro Boyden chambers with 5 μm-pore size filters (Neuro Probe, Inc., Gaithersburg, Md.) as described previously (Falk, et al., J. Immunol. Meth. 33:239-47 (1980)), Chertov, et al., J. Biol. Chem. 271:2935-40 (1996)). Briefly, after the indicated concentrations of galectin-3 in RPMI 1640 were applied to the lower chambers, purified monocyte suspensions (2.5-5.0×10^4/well) were applied to the upper chambers. After incubation of the chambers for 1 h in a humidified incubator at 5% CO2 and 37° C., the filters were washed once with PBS and processed with Wright stain. The number of monocytes on the bottom side of the filters was counted in 5 to 10 high-power fields. Monocyte migration was calculated from the average numbers of the counted cells and expressed as % of input cells in a well.
# [3] = system: eosinophils; assay: Eosinophil attraction in vitro (not shown); type: cell-based
# [4] = system: cell recruitment into mouse air pouches; assay: Migration assay in vivo (mouse air pouch); set-up: species or system Balb/c mice
# Experimental: The mouse air pouch experiments were performed according to a method described previously (Perretti, et al., J. Immunol. 151:4306-14 (1993)). Briefly, an air pouch was induced on the back of Balb/c mice by injecting 3 ml of air intradermally 2, 4, and 6 days before the experiments. Then, 1 ml of 0.9% sodium chloride (USP grade saline, Baxter Healthcare Corporation, Deerfield, Ill.) containing 1 μM galectin-3 was injected into the pouch. As positive and negative controls, 100 ng/ml of recombinant MCP-1 and diluent only, respectively, were injected. Four h afterwards, recruited cells were recovered by gently lavaging the pouch with 1 ml of PBS containing 1 mM EDTA. Cell number was determined and the distribution of leukocyte types was analyzed after cytospin preparation and Wright staining.
# [5] = system: human monocytes; assay: Measurement of Ca2+ influx in monocytes (Indo-1 AM); type: cell-based
# Experimental: Intracellular concentrations of Ca^2+ were measured by using Indo-1 AM according to a previously described method (Lopez, et al., Cytometry 10:165-73 (1989)). Purified monocytes were resuspended in HBSS containing 1 mM Ca^2+, 1 mM Mg^2+, and 5% autologous serum, and incubated with […] Indo-1 AM for 45 min at 37° C. The cells were washed once, resuspended in the same buffer, and stimuli and inhibitors were added at the time points specified in the Figure Legends. Intracellular Ca^2+ concentration was measured by monitoring light emission at 405 and 485 nm to an excitation wavelength of 355 nm, using an AMINCO-Bowman series 2 luminescence spectrometer (Rochester, N.Y.).
# [6] = 1 μM galectin-3, 1 ml into pouch, 4 h, p<0.05, n=4
substance,measurement,setting,value
"galectin-3: Recombinant human galectin-3, a 26 kDa beta-galactoside-binding protein (lectin)",Interaction with chemokine receptor,[1],Neither have interactions between galectin-3 and these four chemokine receptors been detected
same,Enhancement of macrophage migration over that induced by the control medium,[2],190%
same,Attraction of eosinophils in vitro,[3],does not attract eosinophils
same,Increase in number of monocytes in the air pouch over vehicle (saline),[4]; [6],11.6 times
same,Increase in number of neutrophils in the air pouch over vehicle (saline),[4]; [6],8.21 times
same,Number of eosinophils in the air pouch,"[4]; 1 μM galectin-3, 4 h, p=0.112",not augmented significantly
same,Number of lymphocytes in the air pouch,"[4]; 1 μM galectin-3, 4 h, p=0.309",not augmented significantly
same,Induction of Ca2+ influx in human monocytes,[5]; 1 μM galectin-3,induced a Ca^2+ influx
same,Extent of Ca2+ influx compared with MCP-1,"[5]; 1 μM galectin-3 vs 100 ng/ml MCP-1, three separate experiments",lower than that by the chemokine
same,Cross-desensitization of Ca2+ influx with monocyte-reactive chemokines,"[5]; 1 μM galectin-3 vs MCP-1, MIP-1α, SDF-1α at 100 ng/ml, either order",no cross-desensitization
same,Induction of Ca2+ influx in human monocytes,[5]; galectin-3 concentrations lower than 1 μM,not
